# Key:
# [1] = Fluorescence quantum yield versus Alexa Fluor 555 reference; assay type: physicochemical; conditions: highest in FBS among DMSO, MeOH, PBS
# Procedure: Absorbance and fluorescence spectra of the FM fluorophores were measured in PBS and absolute methanol (MeOH) using fiber-optic HR2000 (200-1100 nm) and USB2000FL (350-1000 nm) spectrometers (Ocean Optics, Dunedin, Fla.), respectively. Fluorescence excitation was provided by a 2 mW, 532 nm laser diode. The fluorescence and absorbance spectra of FORMULA II and FORMULA IA were collected in dimethyl sulfoxide (DMSO) and fetal bovine serum (FBS), as well as MeOH and PBS. The quantum yield of FORMULA II and FORMULA IA in DMSO, MeOH, FBS and PBS was measured by comparing the integrated fluorescence emission of the fluorophores in each solvent to the emission of Alexa Fluor 555 (Invitrogen) in PBS (quantum yield=10%) as a reference standard under conditions of matched absorbance at the excitation wavelength. The LogD of each FM fluorophore at pH 7.5 was calculated using Marvin 5.0.3 software (ChemAxon, Budapest, Hungary).
# [2] = system: intervertebral discs (annulus fibrosus); experiment: Intraoperative imaging of the spine in a pig; assay type: in vivo, Yorkshire pig; conditions: 0.47 mg/kg IV, 5 h
# Procedure: Imaging was carried out at near infrared wavelenghts using a 400- to 700-nm “white” light (0.5 mW/cm^2) and a 725- to 775-nm NIR fluorescence excitation light (5 mW/cm^2). Fluorescence images were collected using exposure times ranging from 500 to 2000 msec. All images collected for comparison between vehicle-injected control animals and FM fluorophore-injected animals had the same exposure time and normalization. Color video images were collected on a separate optical channel using custom designed software. The excitation and emission LEDs and filter used for the FM fluorophores and Pam800 in the intraoperative imaging system are described as follows. For fluorescence excitation of FM 1-43, FM 2-10, FM 1-43FX and Formula IA, sixty 5-mm 470 nm LEDs ([…], Inc., Kyoto, Japan) fitted with 470±20 nm band pass (BP) excitation filters (Chroma Technology, Rockingham, Vt.) in custom holders were used, which produced a fluence rate on the imaging surface of 0.56 mW/cm^2. For fluorescence excitation of Formula II, FM 4-64, FM 4-64FX and FM 5-95, sixty 5-mm 535 nm LEDs fitted with 525±25 nm BP excitation filters were used, which produced a fluence rate on the imaging surface of 0.34 mW/cm^2. A 610±38 nm BP filter was used to detect fluorescence emission of FM 1-43, FM 2-10, Formula II, FM 1-43FX and Formula IA. To detect fluorescence emission of FM 4-64, FM 4-64FX and FM 5-95 a 720 nm long pass (LP) filter was used. For fluorescence excitation of Pam800, 348 5-mm 760 nm LEDs fitted with 764±17 nm BP excitation filters were used, which produced a fluence rate on the imaging surface of 8.73 mW/cm^2 and fluorescence emission was detected using a 824±24 nm BP emission filter. FORMULA IA was also evaluated in a Yorkshire pig. […] The pig was monitored under anesthesia during the drug incubation period, after which the animal was sacrificed. […] Tissues from mice, rats and pig were preserved for microscopic assessment and localization of fluorescence signal. […] Exposure times were adjusted between 5 and 2000 ms for fluorescence images.
smiles,measurement,setting,value
"CCCCN(CCCC)c1ccc(/C=C/c2cc[n+](CCC[N+](C)(C)C)cc2)cc1.[Br-].[Br-] [Formula IA, (E)-4-(4-(dibutylamino)styryl)-1-(3-(trimethylammonio)propyl)pyridinium dibromide]","fluorescence quantum yield, times higher in FBS",[1],5 times
same,contrast in the intervertebral discs of the pig,[2],dramatic positive contrast
same,origin of signal within the disc (sagittal and axial sectioning),[2],"majority of the signal was emanating from the annulus fibrosus, and not the nucleus pulposus"
same,microscopic fluorescence pattern in disc sections,[2]; fluorescence microscopy vs H&E,punctate and linear following the lamellae structures of the annulus fibrosus
